One compound from paper PMC5000617, “Antiproliferative and Pro-Apoptotic Effect of Novel Nitro-Substituted Hydroxynaphthanilides on Human Cancer Cell Lines” (International Journal of Molecular Sciences, 2016) can be followed below.

Data set [1] concerns MCF-7 cells. Kind of data set: Erythrosin B dye exclusion viability test, MCF-7. The note with it: MCF-7, 24 h, vs control. The format is cell-based. Here is the method: (§1) Subsequently, for the comparison of the antiproliferative and cytotoxic effects we assessed the cell viability after 24 h treatment with compounds 1–6 in both tumour cell lines using the dye exclusion test.
(§2) THP-1 human monocytic leukemia cell line, MCF-7 human breast adenocarcinoma cells and 3T3-L1 mouse embryonic fibroblast were purchased from the European Collection of Cell Cultures (ECACC, Salisbury, UK). Cells were routinely tested for the absence of mycoplasma (Hoechst 33258 staining method). THP-1 cells were maintained in RPMI 1640 culture medium containing 2 mM L-glutamine; MCF-7 and 3T3-L1 cells were cultured in DMEM medium. All of the culture media were supplemented with 10% heat-inactivated FBS and antibiotics (100 U/mL penicillin and 100 μg/mL streptomycin). Cells were maintained at 37 °C in a humidified atmosphere containing 5% CO2.
(§3) Cell proliferation was evaluated using Cell Proliferation Reagent WST-1 (2-(4-iodophenyl)-3-(4-nitrophenyl)-5-(2,4-disulfophenyl)-2H-tetrazolium) (Roche Diagnostics, Mannheim, Germany) according to the manufacturer´s instructions. THP-1 (5 × 10^4 cells/100 μL culture medium per well), MCF-7 cells (1 × 10^4 cells/100 μL per well), and 3T3-L1 (2.5 × 10^3 cells/100 μL per well) were cultured in 96-well plates in triplicate. The measurement was performed using Synergy 2 Multi-Mode Microplate Reader (BioTek, Winooski, VT, USA) after 24 h incubation of cells with tested compounds dissolved in DMSO and subsequently in RPMI 1640 to final concentration ranging 0.5–20 μM in the assays. Cell viability was assessed by dye exclusion test. THP-1 (2 × 10^5 cells/mL per well) and MCF-7 cells (8 × 10^4 cells/mL per well) were incubated in 24-well plates with the indicated concentrations of compounds for 24 h. The number of viable cells was determined using hemocytometer after their staining with a solution of erythrosin B (0.1% erythrosin B (w/v) in PBS). The assays were conducted in triplicate. The IC50 and LC50 values were calculated from fitted concentration-response curves using GraphPad Prism 5.00 software (GraphPad Software, San Diego, CA, USA).

Data set [2] can be described thus: Erythrosin B dye exclusion viability test, MCF-7. The note with it: human, MCF-7 cells; erythrosin B exclusion test, 24 h, mean ± SD; read-out: MCF-7 LC50. The format is cell-based. Here is the method: as §1, §2, §3
Data set [3] has as its system MCF-7 cells. The data set is described as follows: Flow cytometric cell cycle analysis (PI), MCF-7. The format is cell-based, human. Conditions: MCF-7, 24 h. Here is the method:
(§4) In order to determine at which stage of the cell cycle these compounds induce cell growth inhibition, flow cytometric analyses of cell cycle profiles in THP-1 and MCF-7 cell lines were performed. […] Therefore, THP-1 and MCF-7 cells were treated for 24 h with the compounds at concentrations of 2.5, 5, and 10 μM, respectively. In general, we detected a qualitatively similar effect on the distribution of cells in cell cycle phases following the treatment with compounds 2 and 6 in both leukaemia and breast carcinoma cells. […] This was in concert with a simultaneous decrease in the number of cells observed in the S phase compared to the drug-free control, while the percentage of cells in the G2/M phase remained unchanged.
(§5) THP-1 and sub-confluent MCF-7 cells were treated and subsequently incubated with indicated concentrations of compounds 2 and 6 for 24 h. After the incubation, cells were washed twice in PBS (pH 7.4), fixed in 70% ethanol and stored at −20 °C overnight. Fixed cells were collected by centrifugation, and supernatant was discarded. The cell pellet was washed twice with PBS and incubated with RNaseA (0.02 mg/mL) and 0.05% (v/v) Triton X-100 in PBS for 30 min at 37 °C. After the nuclei staining with propidium iodide (PI) (0.04 mg/mL), the cell cycle distribution was analysed using a flow cytometer Cell Lab Quanta SC (Beckman Coulter, Brea, CA, USA). The quantification of cell cycle distribution was carried out using software MultiCycle AV (Phoenix Flow System, San Diego, CA, USA). A total number of 2 × 10^4 cells was analysed per sample.

For a further data set, the system named is cyclin B1. Kind of data set: Western blot of cyclin B1 in MCF-7 cells. The format is cell-based, human. Conditions: MCF-7, 24 h. Here is the method: (§6) Additionally, the cell cycle analysis allows determining the presence of a subdiploid cell population as a characteristic marker of cells with fractional DNA content. A significant increase (p < 0.001) of the sub-G1 peak was found only after the treatment with 5 µM of compound 2 in THP-1 cells, where an approximately eight-fold increase was observed compared to the drug-free control (Figure 4).
(§7) For Western blotting, cells were washed with PBS and lysed in lysis buffer (100 mM Tris-HCl, pH = 6.8; 20% glycerol; 1% SDS) containing protease and phosphatase inhibitor cocktails. Protein concentration was measured using Roti®-Quant universal (Carl Roth, Karsruhe, Germany) according to the manufacturer’s instructions. Cell lysates were supplemented with bromophenol blue (final concentration 0.01% (w/v)) and β-mercaptoethanol (final concentration 1% (v/v)) prior to being heated for 5 min at 95 °C. Equal amounts of protein (10 μg) were loaded into a 12% polyacrylamide gel, separated by SDS-polyacrylamide gel electrophoresis and subsequently electrotransferred onto nitrocellulose membranes. Reversible Ponceau S. staining was performed to assess equal sample loading. […] The intensity of bands was semi-quantitatively analysed using the ImageJ software (National Institute of Mental Health, Bethesda, MD, USA).

A further data set deals with caspase 3. Kind of data set: Western blot of caspase 3 in THP-1 cells. The format is cell-based, human. The note with it: THP-1, 10 μM, 24 h. Here is the method: Most of the apoptotic signalling pathways are controlled by caspases that belong to a group of cysteine proteases. To assess whether compound 2 affects these signalling cascades and which pathway is activated (intrinsic or extrinsic), the activities of caspase 3, caspase 9, and caspase 8 were evaluated using Western blot analysis.
as §7

Data set [4] has as its system cyclin E1. The data set is described as follows: Western blot of cyclin E1 in THP-1 cells. It counts as cell-based, human. Conditions: THP-1, 24 h. Here is the method:
as §6
For Western blotting, cells were washed with PBS and lysed in lysis buffer (100 mM Tris-HCl, pH = 6.8; 20% glycerol; 1% SDS) containing protease and phosphatase inhibitor cocktails. Protein concentration was measured using Roti®-Quant universal (Carl Roth, Karsruhe, Germany) according to the manufacturer’s instructions. Cell lysates were supplemented with bromophenol blue (final concentration 0.01% (w/v)) and β-mercaptoethanol (final concentration 1% (v/v)) prior to being heated for 5 min at 95 °C. Equal amounts of protein (10 μg) were loaded into a 12% polyacrylamide gel, separated by SDS-polyacrylamide gel electrophoresis and subsequently electrotransferred onto nitrocellulose membranes. Reversible Ponceau S. staining was performed to assess equal sample loading. Then, the membranes were blocked with 5% non-fat dry milk in TBST (10 mM Tris-HCl pH = 7.5, 150 mM NaCl, 0.1% (v/v) Tween-20) and appropriate primary and secondary antibodies were used for immunodetection. The proteins were visualized by ECL Plus reagent according to the manufacturer’s instructions. The intensity of bands was semi-quantitatively analysed using the ImageJ software (National Institute of Mental Health, Bethesda, MD, USA).

Data set [5] deals with cyclin E1. Kind of data set: Western blot of cyclin E1 in MCF-7 cells. It counts as cell-based, human. Conditions: MCF-7, 24 h. Here is the method: as §6, §7
The next data set concerns THP-1 cells. The data set is described as follows: Flow cytometric cell cycle analysis (PI), THP-1. It counts as cell-based, human. Here is the method:
as §4, §5

As to `O=C(Nc1cccc([N+](=O)[O-])c1)c1cc2ccccc2cc1O` [Compound 2, 3-hydroxy-N-(3-nitrophenyl)naphthalene-2-carboxamide], in the data set on MCF-7 cells [1], the “effect on cell viability” value is reported as “Neither compound 2 nor 6 reduced cell viability under 50%”. For the same compound, the CC50 at 24 h in data set [2] was more than 20 µM. Also, in the data set on MCF-7 cells [3], the “distribution of cells in cell cycle phases” value was “induced accumulation of cells in G1 phase” and the “sub-G1 / sub-diploid population” value is on record as “did not induce any elevation of the sub-G1 peak”. For the same compound, in the data set with cyclin B1, the “total protein levels of cyclin B1” value is recorded as “total protein levels of cyclin B1 were not changed”. Also, in the data set with caspase 3, the “decrease of pro-caspase 3 (inactive form) compared to control” value is “approximately two-fold” and the “increase of active caspase 3 level in comparison to control” value is listed as “approximately two-fold”. In the data set with cyclin E1 [4], the “expression of cyclin E1” value is “dose-dependent decrease in expression of cyclin E1” and the “levels of cyclin E1 low molecular weight (LMW E1) isoform” value was “more pronounced reduction of LMW E1 isoform levels”. The “expression of cyclin E1” value with cyclin E1 [5] is “dose-dependent decrease in expression of cyclin E1”. In addition, the “increase of sub-G1 peak compared to drug-free control” value with THP-1 cells (THP-1, 5 µM, 24 h, p < 0.001) is reported as “approximately eight-fold”. Moreover, the “distribution of cells in cell cycle phases” value in the data set with THP-1 cells (THP-1, 24 h) is reported as “induced accumulation of cells in G1 phase”.
